Source: the supplement of paper PMC13380429

How the values were obtained:
Conditions in all cases: 72 h
U2OS [1] = assay: drug sensitivity score (DSS) for viability; higher = more toxic; extreme values may be limits of the assay
Caco-2 [2] = assay: as above
HepG2 [3] = assay: as above
Vero E6 [4] = assay: as above
Calu-3 [5] = assay: as above
U2OS [6] = assay: relative viability EC50 (midpoint between 100% and the lowest measured viability); higher = less toxic
Caco-2 [7] = assay: as above
HepG2 [8] = assay: as above
Vero E6 [9] = assay: as above
Calu-3 [10] = assay: as above
U2OS [11] = assay: cell viability relative to DMSO; higher = less toxic
Caco-2 [12] = assay: as above
HepG2 [13] = assay: as above
Vero E6 [14] = assay: as above
Calu-3 [15] = assay: as above

| SMILES | drug sensitivity score (U2OS [1]) | drug sensitivity score (Caco-2 [2]) | drug sensitivity score (HepG2 [3]) | drug sensitivity score (Vero E6 [4]) | drug sensitivity score (Calu-3 [5]) | relative viability EC50 (U2OS [6]) [µM] | relative viability EC50 (Caco-2 [7]) [µM] | relative viability EC50 (HepG2 [8]) [µM] | relative viability EC50 (Vero E6 [9]) [µM] | relative viability EC50 (Calu-3 [10]) [µM] | cell viability (U2OS [11]; 1 nM) [%] | cell viability (U2OS [11]; 10 nM) [%] | cell viability (U2OS [11]; 100 nM) [%] | cell viability (U2OS [11]; 1000 nM) [%] | cell viability (U2OS [11]; 10000 nM) [%] | cell viability (Caco-2 [12]; 1 nM) [%] | cell viability (Caco-2 [12]; 10 nM) [%] | cell viability (Caco-2 [12]; 100 nM) [%] | cell viability (Caco-2 [12]; 1000 nM) [%] | cell viability (Caco-2 [12]; 10000 nM) [%] | cell viability (HepG2 [13]; 1 nM) [%] | cell viability (HepG2 [13]; 10 nM) [%] | cell viability (HepG2 [13]; 100 nM) [%] | cell viability (HepG2 [13]; 1000 nM) [%] | cell viability (HepG2 [13]; 10000 nM) [%] | cell viability (Vero E6 [14]; 1 nM) [%] | cell viability (Vero E6 [14]; 10 nM) [%] | cell viability (Vero E6 [14]; 100 nM) [%] | cell viability (Vero E6 [14]; 1000 nM) [%] | cell viability (Vero E6 [14]; 10000 nM) [%] | cell viability (Calu-3 [15]; 1 nM) [%] | cell viability (Calu-3 [15]; 10 nM) [%] | cell viability (Calu-3 [15]; 100 nM) [%] | cell viability (Calu-3 [15]; 1000 nM) [%] | cell viability (Calu-3 [15]; 10000 nM) [%] |
| --- | --- | --- | --- | --- | --- | --- | --- | --- | --- | --- | --- | --- | --- | --- | --- | --- | --- | --- | --- | --- | --- | --- | --- | --- | --- | --- | --- | --- | --- | --- | --- | --- | --- | --- | --- |
| C[C@@H]1NC(C)(C)CO[C@@]1(O)c1cccc(Cl)c1 [radafaxine] | 0 | 0 | 0 | 0 | 0 | > 10 | > 10 | > 10 | > 10 | > 10 | 101 | 103 | 101 | 102 | 97.5 | 90.2 | 94.4 | 97.4 | 99.9 | 95 | 98.3 | 99.7 | 97.6 | 98.4 | 90.3 | 100 | 97.9 | 106 | 96.4 | 105 | 95.4 | 92.4 | 94.1 | 101 | 90.3 |
| Oc1cccc(O)c1 [resorcinol] | 0 | 0 | 2.5 | 0 | 0 | > 10 | > 10 | > 10 | > 10 | > 10 | 97.6 | 93.8 | 96.2 | 96.8 | 103 | 103 | 89.8 | 95.5 | 100 | 103 | 105 | 92.9 | 90.4 | 79.2 | 89 | 103 | 96 | 97.4 | 96.5 | 107 | 97.5 | 102 | 114 | 99.2 | 103 |
| C[C@@H](c1ccc2nccn2c1)n1nnc2ncc(-c3cnn(C)c3)nc21 [savolitinib] | 0 | 0 | 0.8 | 0 | 0 | > 10 | > 10 | > 10 | > 10 | > 10 | 101 | 103 | 98.9 | 96.9 | 95.8 | 103 | 92.9 | 95.4 | 100 | 91.8 | 99.5 | 96.2 | 96.8 | 89.4 | 83.4 | 102 | 102 | 96.5 | 98.9 | 97.4 | 99.3 | 85.2 | 94.4 | 95.5 | 95.3 |
| Cc1cc(S(=O)(=O)O)c2c(C)ccc(C(C)C)cc1-2 [sodium-gualenate] | 0 | 0 | 0 | 0 | 0 | > 10 | > 10 | > 10 | > 10 | > 10 | 92.8 | 95.2 | 98 | 101 | 104 | 90.8 | 95.5 | 92.2 | 92.8 | 89.3 | 97.3 | 87.1 | 103 | 94.6 | 108 | 98 | 106 | 101 | 93.2 | 92.8 | 109 | 91.8 | 112 | 103 | 100 |
| C/C=C/C=C/C(=O)O [sorbic-acid] | 0 | 0 | 0 | 0 | 0 | > 10 | > 10 | > 10 | > 10 | > 10 | 99.5 | 98.4 | 94.2 | 102 | 102 | 103 | 93.3 | 106 | 99 | 114 | 87.3 | 97.6 | 90.7 | 107 | 108 | 95.4 | 103 | 96.5 | 94.5 | 102 | 106 | 99.8 | 84.4 | 91.3 | 110 |
| CC(=O)N1N=C(c2ccc(N)cc2)c2cc3c(cc2C[C@H]1C)OCO3 [talampanel] | 0 | 0 | 0 | 0 | 0 | > 10 | > 10 | > 10 | > 10 | > 10 | 99 | 101 | 96.7 | 95.5 | 97.7 | 94.7 | 104 | 94.7 | 96.9 | 98.6 | 101 | 93.9 | 100 | 107 | 99.7 | 94 | 95.3 | 95.9 | 95.5 | 97.4 | 98 | 99.6 | 98.2 | 95.6 | 97.3 |
| CCC[C@H](NC(=O)[C@@H]1[C@H]2CCC[C@H]2CN1C(=O)[C@@H](NC(=O)[C@@H](NC(=O)c1cnccn1)C1CCCCC1)C(C)(C)C)C(=O)C(=O)NC1CC1 [telaprevir] | 0 | 0 | 0 | 0 | 0 | > 10 | > 10 | > 10 | > 10 | > 10 | 99.2 | 97.9 | 102 | 98.8 | 93.9 | 101 | 93.1 | 95.6 | 102 | 91.5 | 115 | 108 | 98.8 | 107 | 87 | 100 | 103 | 98.9 | 105 | 99 | 106 | 88.1 | 101 | 93.6 | 97.6 |
| CC(=O)CC/C=C(\C)CC/C=C(\C)CC/C=C(\C)CCC=C(C)C [teprenone] | 0 | 0 | 0 | 0 | 0 | > 10 | > 10 | > 10 | > 10 | > 10 | 102 | 95.4 | 103 | 96.9 | 99.2 | 96.9 | 88.2 | 93.7 | 98.6 | 116 | 96.3 | 102 | 97.4 | 92.3 | 101 | 94.8 | 103 | 92.6 | 103 | 100 | 92.2 | 88.5 | 99.7 | 95.5 | 94.9 |
| CCO[C@@H](Cc1ccc(OCCc2ccc(OS(C)(=O)=O)cc2)cc1)C(=O)O [tesaglitazar] | 0 | 0 | 0 | 2.7 | 0 | > 10 | > 10 | > 10 | > 10 | > 10 | 100 | 95.9 | 95.7 | 101 | 105 | 101 | 86 | 94.1 | 100 | 99.2 | 101 | 96.7 | 104 | 91.1 | 98.1 | 99.2 | 99.5 | 96 | 81.9 | 82.6 | 105 | 104 | 97.9 | 113 | 110 |
| CC1(C)O[C@@H]2[C@@H](CO[C@@]3(COS(N)(=O)=O)OC(C)(C)O[C@@H]23)O1 [topiramate] | 0 | 0 | 0 | 0 | 0 | > 10 | > 10 | > 10 | > 10 | > 10 | 98.7 | 94.5 | 98.1 | 105 | 108 | 93.2 | 83.1 | 92.2 | 112 | 98.7 | 108 | 96.9 | 91.8 | 95.9 | 94.9 | 89.5 | 98.3 | 95.6 | 97.7 | 107 | 110 | 96.6 | 94.8 | 95.2 | 103 |
| CCOC(=O)[C@H](CCc1ccccc1)N[C@@H](C)C(=O)N1[C@H](C(=O)O)C[C@H]2CCCC[C@@H]21 [trandolapril] | 0 | 0.4 | 0 | 0 | 0 | > 10 | > 10 | > 10 | > 10 | > 10 | 97.6 | 92.6 | 98.5 | 96 | 99.4 | 93.1 | 86 | 83.2 | 89.6 | 100 | 90.7 | 104 | 96.4 | 100 | 108 | 91.6 | 97.3 | 89.6 | 96.1 | 107 | 106 | 98 | 102 | 108 | 102 |
| C[C@@H]([C@@H](O)c1ccc(O)cc1)N1CCC(O)(c2ccccc2)CC1 [traxoprodil] | 0 | 0 | 0 | 0 | 0 | > 10 | > 10 | > 10 | > 10 | > 10 | 100 | 100 | 96.1 | 110 | 101 | 100 | 100 | 92.6 | 99.8 | 97 | 98.1 | 91.4 | 104 | 107 | 101 | 98.2 | 95.3 | 95.7 | 100 | 98.7 | 98.9 | 94.3 | 93.3 | 109 | 108 |
| CC(CN(C)C)CN1c2ccccc2CCc2ccccc21 (stereo not given) [trimipramine] | 0 | 0 | 0 | 0 | 0 | > 10 | > 10 | > 10 | > 10 | > 10 | 98.7 | 96.4 | 102 | 98.1 | 97.1 | 95.6 | 87.1 | 98 | 102 | 93.7 | 103 | 104 | 94.3 | 101 | 89.7 | 103 | 101 | 97.6 | 96.8 | 89.8 | 92.3 | 101 | 105 | 105 | 89.4 |
| COc1cc(C(=S)N2CCOCC2)ccc1O [vanitiolide] | 0 | 0 | 0 | 0 | 0 | > 10 | > 10 | > 10 | > 10 | > 10 | 104 | 99.5 | 95.4 | 98.7 | 101 | 87.7 | 92.9 | 102 | 106 | 97.6 | 99.8 | 92.8 | 97.2 | 102 | 109 | 97.2 | 91.6 | 93.4 | 95.2 | 105 | 108 | 108 | 99.1 | 98.4 | 104 |
